Assay results published in patent publication US12344610B2, “APOL1 inhibitors and methods of use” (Maze Therapeutics, Inc., priority 2022, dated 2025).

biological target: T1, APOL1 G2 (Homo sapiens, UniProt O14791, DEL388-389); test: APOL1-mediated calcium transport (calcium influx) assay, HEK T-REx/GCaMP6f/APOL1 G2 K6.3 cells, FLIPR TETRA; type: cell-based; details: prevention of calcium influx; geometric mean of at least 2 assay runs; † = average of a technical replicate from a single assay run
T1 construct: expressed in transfected cells; host or cells: HEK293 T-REx clonal line stably expressing GCaMP6f (HEK T-REx/GCaMP6f/APOL1 G2 K6.3), doxycycline induced
T1 sequence (O14791 with tags, fused parts or gaps DEL388-389): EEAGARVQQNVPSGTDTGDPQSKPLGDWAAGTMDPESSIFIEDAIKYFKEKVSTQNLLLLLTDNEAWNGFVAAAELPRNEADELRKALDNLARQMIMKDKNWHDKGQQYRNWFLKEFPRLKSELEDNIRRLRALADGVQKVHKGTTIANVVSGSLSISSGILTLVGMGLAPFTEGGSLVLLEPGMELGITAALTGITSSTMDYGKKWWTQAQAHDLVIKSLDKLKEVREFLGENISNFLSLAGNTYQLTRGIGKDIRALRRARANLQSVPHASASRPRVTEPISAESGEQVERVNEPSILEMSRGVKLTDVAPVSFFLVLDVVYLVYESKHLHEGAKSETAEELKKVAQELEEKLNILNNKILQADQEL
How it was run: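 A HEK293 T-REx clone stably expressing GCaMP6f had APOL1 G2 induced with doxycycline (20 ng/mL solution added) for 6 h. Cells were then washed into Ca2+-free Tyrode's buffer (pH 7.4) and preincubated with compounds (duplicate 8-point) for 10 min at room temperature. Ca2+ injection to 5 mM final produced FLIPR GCaMP fluorescence, giving AC50 for influx inhibition (geometric mean, ≥2 runs).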

Compound | AC50 [nM]
O=C1CCc2cc(OCCN3CCC4(CC3)C(=O)Nc3ccc(Cl)cc34)cnc2N1CCO [Compound 192, 5-chloro-1′-(2-{[8-(2-hydroxyethyl)-7-oxo-5,6,7,8-tetrahydro-1,8-naphthyridin-3-yl]oxy}ethyl)-1,2-dihydrospiro[indole-3,4′-piperidin]-2-one] | 291
CC(=O)N(C)CCS(=O)(=O)c1ccc(OCCN2CCC3(CC2)C(=O)Nc2ccc(Cl)cc23)cc1 [Compound 193, N-{2-[4-(2-{5-chloro-2-oxo-1,2-dihydrosiro[indole-3,4′-piperidin]-1′-yl}ethoxy)benzenesulfonyl]ethyl}-N-methylacetamide] | 1270
CS(=O)(=O)C1(c2ccc(OCCN3CCC4(CC3)C(=O)Nc3ccc(Cl)cc34)cc2)COC1 [Compound 195, 5-chloro-1′-{2-[4-(3-methanesulfonyloxetan-3-yl)phenoxy]ethyl}-1,2-dihydrospiro[indole-3,4′-piperidin]-2-one] | 604
O=C1Nc2ccc(Cl)cc2C12CCN(CCOc1ccc3c(c1)CCS3(=O)=O)CC2 [Compound 196, 5-(2-{5-chloro-2-oxo-1,2-dihydrospiro[indole-3,4′-piperidin]-1′-yl}ethoxy)-2,3-dihydro-1λ^6-benzothiophene-1,1-dione] | 696
CS(=O)(=O)c1ccc(OCCN2CCC3(CC2)C(=O)Nc2ccc(Cl)cc23)cc1C(F)F [Compound 197, 5-chloro-1′-{2-[3-(difluoromethyl)-4-methanesulfonylphenoxy]ethyl}-1,2-dihydrospiro[indole-3,4′-piperidin]-2-one] | 889
O=C1Nc2ccc(Cl)cc2C12CCN(CCOc1ccc(S(=O)(=O)CCO)cc1)CC2 [Compound 198, 5-chloro-1′-{2-[4-(2-hydroxyethanesulfonyl)phenoxy)ethyl}-1,2-dihydrospiro[indole-3,4′-piperidin]-2-one] | 631
CS(=O)(=O)Nc1ccc(OCCN2CCC3(CC2)C(=O)Nc2ccc(Cl)cc23)cc1 [Compound 214, N-[4-(2-{5-chloro-2-oxo-1,2-dihydrospiro[indole-3,4′-piperidin]-1′-yl}ethoxy)phenyl]methanesulfonamide] | 355
O=C1Nc2ccc(Cl)cc2C12CCN(CCOc1ccc(S(=O)(=O)[C@H]3C[C@H](O)C3)cc1)CC2 [Compound 215, 5-chloro-1′-[2-(4-{[(trans)-3-hydroxycyclobutyl]sulfonyl}phenoxy)ethyl]-1,2-dihydrospiro[indole-3,4′-piperidin]-2-one] | 1130
CS(=O)(=O)c1ccc(OCCN2CCC3(CC2)C(=O)Nc2ccc(Cl)cc23)cc1C(O)CO (centres unmarked) [Compound 216, 5-chloro-1′-{2-[3-(1,2-dihydroxyethyl)-4-methanesulfonylphenoxy]ethyl}-1,2-dihydrospiro[indole-3,4′-piperidin]-2-one] | 3140
O=C1CCc2cc(OCCN3CCC4(CC3)C(=O)Nc3ccc(Cl)cc34)ccc2N1[C@H]1C[C@H](O)C1 [Compound 224, 5-chloro-1′-[2-({2-oxo-1-[(trans)-3-hydroxycyclobutyl]-1,2,3,4-tetrahydroquinolin-6-yl}oxy)ethyl]-1,2-dihydrospiro[indole-3,4′-piperidin]-2-one] | 830
O=C1Nc2ccc(Cl)cc2C12CCN(CCOc1ccc(S(=O)(=O)C3(CO)CC3)cc1)CC2 [Compound 225, 5-chloro-1′-[2-(4-{[1-(hydroxymethyl)cyclopropyl]sulfonyl}phenoxy)ethyl]-1,2-dihydrospiro[indole-3,4′-piperidin]-2-one] | 847
CNC(=O)C1(S(=O)(=O)c2ccc(OCCN3CCC4(CC3)C(=O)Nc3ccc(Cl)cc34)cc2)CC1 [Compound 226, 1-[4-(2-{5-chloro-2-oxo-1,2-dihydrospiro[indole-3,4′-piperidin]-1′-yl}ethoxy)benzenesulfonyl]-N-methylcyclopropane-1-carboxamide] | 1080
CN(C)C(=O)C1(S(=O)(=O)c2ccc(OCCN3CCC4(CC3)C(=O)Nc3ccc(Cl)cc34)cc2)CC1 [Compound 227, 1-[4-(2-{5-chloro-2-oxo-1,2-dihydrospiro[indole-3,4′-piperidin]-1′-yl}ethoxy)benzenesulfonyl]-N,N-dimethylcyclopropane-1-carboxamide] | 1110
O=C1Nc2ccc(Cl)cc2C12CCN(CCOc1ccc(S(=O)(=O)C3(C(=O)N4CCC4)CC3)cc1)CC2 [Compound 228, 1′-[2-(4-{[1-(azetidine-1-carbonyl)cyclopropyl]sulfonyl}phenoxy)ethyl]-5-chloro-1,2-dihydrospiro[indole-3,4′-piperidin]-2-one] | 1200
CNC(=O)c1ccc(OCCN2CCC3(CC2)C(=O)Nc2ccc(Cl)cc23)cc1F [Compound 229, 4-(2-{5-chloro-2-oxo-1,2-dihydrospiro[indole-3,4′-piperidin]-1′-yl}ethoxy)-2-fluoro-N-methylbenzamide] | 792
CN(C)C(=O)c1ccc(OCCN2CCC3(CC2)C(=O)Nc2ccc(Cl)cc23)cc1F [Compound 230, 4-(2-{5-chloro-2-oxo-1,2-dihydrospiro[indole-3,4′-piperidin]-1′-yl}ethoxy)-2-fluoro-N,N-dimethylbenzamide] | 891
O=C(c1ccc(OCCN2CCC3(CC2)C(=O)Nc2ccc(Cl)cc23)cc1F)N1CCOCC1 [Compound 231, 5-chloro-1′-{2-[3-fluoro-4-(morpholine-4-carbonyl)phenoxy]ethyl}-1,2-dihydrospiro[indole-3,4′-piperidin]-2-one] | 1020
O=C(c1ccc(OCCN2CCC3(CC2)C(=O)Nc2ccc(Cl)cc23)cc1F)N1CCS(=O)(=O)CC1 [Compound 232, 4-[4-(2-{5-chloro-2-oxo-1,2-dihydrospiro[indole-3,4′-piperidin]-1′-yl}ethoxy)-2-fluorobenzoyl]-1λ^6-thiomorpholine-1,1-dione] | 1010
CS(=O)(=O)C1CN(C(=O)c2ccc(OCCN3CCC4(CC3)C(=O)Nc3ccc(Cl)cc34)cc2F)C1 [Compound 233, 5-chloro-1′-{2-[3-fluoro-4-(3-methanesulfonyl-azetidine-1-carbonyl)phenoxy]ethyl}-1,2-dihydrospiro[indole-3,4′-piperidin]-2-one] | 1160
O=C(c1ccc(OCCN2CCC3(CC2)C(=O)Nc2ccc(Cl)cc23)cc1F)N1CCC1 [Compound 234, 1′-{2-[4-(azetidine-1-carbonyl)-3-fluorophenoxy]ethyl}-5-chloro-1,2-dihydrospiro[indole-3,4′-piperidin]-2-one] | 786
O=C(c1ccc(OCCN2CCC3(CC2)C(=O)Nc2ccc(Cl)cc23)cc1F)N1CC(O)C1 [Compound 235, 5-chloro-1′-{2-[3-fluoro-4-(3-hydroxyazetidine-1-carbonyl)phenoxy]ethyl}-1,2-dihydrospiro[indole-3,4′-piperidin]-2-one] | 1000
NC1CN(C(=O)c2ccc(OCCN3CCC4(CC3)C(=O)Nc3ccc(Cl)cc34)cc2F)C1 [Compound 236, 1′-{2-[4-(3-aminoazetidine-1-carbonyl)-3-fluorophenoxy]ethyl}-5-chloro-1,2-dihydrospiro[indole-3,4′-piperidin]-2-one] | 634
CS(=O)(=O)NC1CN(C(=O)c2ccc(OCCN3CCC4(CC3)C(=O)Nc3ccc(Cl)cc34)cc2F)C1 [Compound 237, N-{1-[4-(2-{5-chloro-2-oxo-1,2-dihydrospiro[indole-3,4′-piperidin]-1′-yl}ethoxy)-2-fluorobenzoyl]azetidin-3-yl} methanesulfonamide] | 3310
N#Cc1ccc2c(c1)C1(CCN(CCOc3ccc(C(N)=O)c(F)c3)CC1)C(=O)N2 [Compound 238, 4-(2-{5-cyano-2-oxo-1,2-dihydrospiro[indole-3,4′-piperidin]-1′-yl}ethoxy)-2-fluorobenzamide] | 285
O=C(c1ccc(OCCN2CCC3(CC2)C(=O)Nc2ccc(Cl)cc23)cc1F)N1CC2(C1)CS(=O)(=O)C2 [Compound 239, 6-[4-(2-{5-chloro-2-oxo-1,2-dihydrospiro[indole-3,4′-piperidin]-1′-yl}ethoxy)-2-fluorobenzoyl]-2λ^6-thia-6-azaspiro[3.3]heptane-2,2-dione] | 1540
Cc1n[nH]cc1-c1ccc(OCCN2CCC3(CC2)C(=O)Nc2ccc(Cl)cc23)cc1 [Compound 244, 5-chloro-1′-{2-[4-(5-methyl-1H-pyrazol-4-yl)phenoxy]ethyl}-1,2-dihydrospiro[indole-3,4′-piperidin]-2-one] | 1060
CNC(=O)N1CCc2cc(OCCN3CCC4(CC3)C(=O)Nc3ccc(Cl)cc34)ccc2C1 [Compound 245, 6-(2-{5-chloro-2-oxo-1,2-dihydrospiro[indole-3,4′-piperidin]-1′-yl}ethoxy)-N-methyl-1,2,3,4-tetrahydroisoquinoline-2-carboxamide] | 718
Cn1c(=O)[nH]c2cc(OCCN3CCC4(CC3)C(=O)Nc3ccc(Cl)cc34)cnc21 [Compound 247, 5-chloro-1′-[2-({3-methyl-2-oxo-1H,2H,3H-imidazo[4,5-b]pyridin-6-yl}oxy)ethyl]-1,2-dihydrospiro[indole-3,4′-piperidin]-2-one] | 806
O=C1Nc2ccc(Cl)cc2C12CCN(CCOc1ccc(S(=O)(=O)C3(CO)CC3)nc1)CC2 [Compound 248, 5-chloro-1′-{2-[(6-{[1-(hydroxymethyl)cyclopropyl]sulfonyl}pyridin-3-yl)oxy]ethyl}-1,2-dihydrospiro[indole-3,4′-piperidin]-2-one] | 820
